≈ marks a conversion by molar mass, not a printed value.
What was measured:
mouse lung = assay: AAV vectors co-formulated with DS or DS/D2S, intranasal instillation; assay type: in vivo, C57Bl/6 mice
Experimental: Cationic liposomes (DS/D2S) in a 1:1 mole ratio with DOPE (51 μg total lipid) were mixed with AAV (10^11 GC/dose) in equal volume at room temperature for 15 minutes prior to instillation. C57Bl/6 mice (6 to 8 weeks of age) were anesthetized by an i.p. injection of a 3:2 mixture of xylazil:ketamine. For dosing, mice were suspended from their dorsal incisors (hind quarters supported) and a dose of 10^11 GC of AAV vector was delivered as a 50 μl bolus into the nostrils.
To evaluate luciferase transgene expression, 250 μl of a 15 mg/ml luciferin solution (Caliper Life Sciences, Hopkinton, Mass.) was injected per 25 gram body mass by i.p. injection. Five minutes after luciferin injection the mice were anesthetized by an i.p. injection of a 3:2 mixture of xylazil:ketamine. Animals were imaged 15 minutes after the original luciferin injection with a high sensitivity CCD Xenogen IVIS bioluminescent imaging system (Caliper Life Sciences).
For lacZ transgene expression evaluation, lungs were harvested and inflated with a 1:1 mixture of PBS and OCT embedding compound. One lobe was then submerged in OCT, frozen in isopentane cooled with liquid nitrogen, and cryosectioned ([…]). Sections were fixed in 0.5% glutaraldehyde in PBS (Electron Microscopy Sciences, Hatfield, Pa.) for 10 minutes (4° C.) and then washed twice in PBS/1 mM MgCl2 (4° C.) and stained with X-gal substrate (5-bromo-4-chloro-3-indoyl-β-D-galactopyranoside) for 16 hours at 37° C. to reveal LacZ-positive cells. After being washed in PBS, sections were counterstained with nuclear fast red, dehydrated through a graded ethanol series and xylene, coverslipped, and imaged. The other lobe was placed in 2 ml of Lysis Buffer (Roche, Indianapolis, Ind.) and placed on ice. Directly after all samples were collected, each sample was homogenized for approximately 10 seconds. […] A mouse β-galactosidase enzyme-linked immunosorbent assay (ELISA) (Roche) was used on lung homogenates according to the manufacturer's instructions to quantitatively measure LacZ gene expression. […]

[1] = Hyaluronic acid release assay (dialysis)
Experimental: Hyaluronic acid sodium salt (Rooster Comb HA; Sigma) was diluted in PBS at 1 mg/ml to mimic an anionic glycosaminoglycan at a nominal interstitial concentration.

osteoblasts = assay: In vitro bone culture inflammatory model, qRT-PCR transcripts; assay type: cell-based, murine; details: for reduction in IL-6 transcripts over control: qRT-PCR normalized to GAPDH; for OPG/RANKL ratio: transcripts, qRT-PCR
Experimental: For co-cultures with osteoblasts, bone marrow cells (1×10^5 cells/well in 96-well plates) were co-cultured with calvarial osteoblasts (1×10^4 cells/well) in α-minimal essential medium containing 10% fetal bovine serum and supplemented with 20 nM 1α, 25(OH)2D3 and 1 μM prostaglandin E2 (PGE2) for 9 days. […] Co-cultures treated with Vitamin D3 (VitD3) were treated at 20 nM.
For transcript analysis, total RNA was isolated using the Absolutely RNA microprep kit (Stratagene, La Jolla, Calif.). RNA was reverse transcribed using Superscript III reverse transcriptase and oligo(dT) (Invitrogen, Carlsbad, Calif.), and complementary DNA was purified using Qiagen's PCR purification kit (Valencia, Calif.). Complementary DNA from untreated samples was used for optimizing PCR conditions, with primers targeting the gene of interest. For the gene RANKL, the forward primer was 5′-[sequence]-3′ and the reverse primer was 5′-[sequence]-3′, for the OPG gene the forward primer was 5′-[sequence]-3′ and the reverse primer was 5′-[sequence]-3′, for the IL-6 gene the forward primer was 5′-[sequence]-3′ and the reverse primer was 5′-[sequence]-3′. In order to normalize the expression levels, GAPDH was used as a housekeeping gene with forward primer 5′-[sequence]-3′ and reverse primer 5′-[sequence]-3′. A standard curve was created using the untreated controls and the optimized PCR conditions for each set of primers on a Roche LightCycler 480 (Indianapolis, Ind.). Quantitative real-time PCR was performed using the LightCycler FastStart DNA MasterPLUS SYBR Green I kit with melting curve analysis provided by the LightCycler software.
TNF-α is utilized as an inflammatory cytokine to initiate the NF-κB pathway and subsequent effect on RANKL.

[2] = system: neutrophils in the i.p. space; assay: Thioglycollate (TG) model of inflammation; assay type: in vivo, BALB/c mice
Experimental: Male, 6- to 8-week-old (20 g) BALB/c mice, six per group, were used. […] After 30 minutes, mice were injected i.p. with 1.5 mL of 3% TG in PBS containing 1% ethanol. At 4 hour post-TG, the i.p. fluid was collected and neutrophils were counted.

physchem = details: water
[3] = system: GRE promoter construct (pGRE-SEAP); assay: Induction of transcription from GRE (GRE-SEAP promoter construct) in 293 cells; assay type: cell-based
Experimental: 293 cells were lipofected with GRE-SEAP plasmid in triplicate using 1 μg plasmid and 6 μg Lipofectamine per well in 24-well plates. […] After 24 hr of induction, 50 μl aliquots of growth media were analyzed for alkaline phosphatase activity using the SEAP fluorogenic assay following the manufacturer's instructions.

[4] = system: bovine aortic endothelial cells; assay: Lipofection of BAEC with EGFP plasmid; assay type: cell-based; details: alone, unconjugated
Experimental: Bovine aortic endothelial cells (BAEC, passage 4-13) were passaged at a 1:3 split to 24-well culture plates, and then grown to dense confluence before lipofection. Growth medium was Dulbecco's modified Eagle's medium (DMEM) containing 10% heat inactivated charcoal-filtered (to remove steroid hormones) fetal calf serum (Hyclone), 0.30 mg/ml glutamine, 150 U/ml penicillin, and 0.15 mg/ml streptomycin (Gibco). 293 cells were grown under identical conditions. The plasmids pEGFP-N3 and pGRE-SEAP (Clontech) were used for expression of EGFP or secreted alkaline phosphatase under the regulation of CMV or GRE promoters, respectively. […] In other experiments, Lipofectamine 2000 (Invitrogen), in a 1:1 (wt) ratio with nucleic acid, was used according to the manufacturer's instructions.
For fluorescence microscopy and flow cytometry, pEGFP-N3 plasmid (Clontech, Palo Alto, Calif.) was used to generate GFP as the fluorescent reporter transgene protein. Cells were transfected in 6-well plates with each condition in duplicate. One day after GFP transfection, cells were imaged and then harvested in 500 ul PBS and kept on ice until analysis. A BD Biosciences (Franklin Lakes, N.J.) FACSCalibur flow cytometer was used to obtain fluorescence data with 50,000 counts recorded per condition.
EGFP expression was calibrated using 0 to 200 ng recombinant GFP (Clontech) in 750 μl PBS. […]

mouse lungs = assay: AdV vector formulated with lipid, intranasal delivery to mouse lungs; assay type: in vivo, C57Bl/6 mice; design: key: 0 (normal, no inflammation); mild (+) monocytic infiltrate and congestion; +++ (extensive inflammation); details: day 7
Source text: E1/E3-deleted replication-deficient, recombinant adenovirus vectors (2-4.5×10^12 GC/ml stock) expressing either a LacZ or a AlkP reporter were created as previously described in Gao et al. (1996, J. Virol. 70:8934-8943) by homologous recombination between the shuttle plasmid that carries the transgene and the 5′ end of the adenovirus genome with E1 deleted and 3′ end of H5.sub360 in which the E3 gene was inactivated by a small deletion. The recombinant viruses were propagated in 293 cells and purified by the standard CsCl gradient sedimentation method. The replication-deficient AAV2/5CBntLacZ contains the LacZ gene with a nucleus localization sequence at its N-terminus, under the transcriptional control of the chicken h-actin promoter. The AAV (2/5) vector (˜2×10^12 GC/ml stock) was produced by transcapsidation in 293 cells using a triple transfection method and purified by CsCl gradient sedimentation as described in Gao et al. (2002, Proc. Natl. Acad. Sci. USA 99:11854-11859).
C57Bl/6 mice (6 to 8 weeks of age) were anesthetized by an i.p. injection of a 3:2 mixture of xylazil (20 mg/ml):ketamine (100 mg/ml). For dosing, mice were suspended from their dorsal incisors (hind quarters supported) and a dose of 10^11 GC of AdV or AAV vector was delivered as a 50-μl bolus into the nostrils using a gel-loading tip (Finnpippette). […]

In the case of `CC1C[C@H]2[C@@H]3CCC4=CC(=O)C=C[C@]4(C)[C@@]3(F)C(O)C[C@]2(C)[C@@]1(O)C(=O)CSCCCC(=N)NCCCNCCCCNCCCN.O=C(O)C(F)(F)F` (stereo partly drawn) [DS, N-[3-({4-[(3-aminopropyl)amino]butyl}amino)propyl]-4-[(9-fluoro-11,17-dihydroxy-16-methyl-3,20-dioxopregna-1,4-dien-21-yl)sulfanyl]butanimidamide-TFA Salt], the “lacZ transgene level in lung homogenate compared to control” value (mouse lung; AAV2/6.2, ELISA, day 28) is reported as “higher average transgene levels”, the “luciferase luminescence in the lung” value (mouse lung; AAV2/9, day 28) is reported as “minimal luminescence in the lung” and the “LacZ gene expression versus AAV2/9-LacZ alone (readministered control)” value (mouse lung; day 56, formulation at day 0, re-administration day 28) is reported as 2 fold. For the same compound, the “fraction eluted from HA” value ([1]; 24 hour period) was “only a small fraction”, the “half-life for dissociation from HA” value ([1]; in PBS) was 56 h and the “time remaining tightly bound to HA” value ([1]; physiological salt buffer) was “over 24 hours”. The “reduction in IL-6 transcripts over control” value (osteoblasts) was 17%, the OPG/RANKL ratio (osteoblasts) was 1.67 and the “reduction in neutrophil immigration versus vehicle” value ([2]; 5.85 mg/kg i.p. 30 minutes before TG, 4 hour post-TG) was 60%. For the same compound, the lethality ([2]; tested dose 5.85 mg/kg i.p.) was “not lethal”, the solubility (physchem) was > 100000 µg/mL and the “SEAP transcription from GRE promoter” value ([3]; 100 nM, 293 cells) was “statistically significant levels of SEAP transcription”. For the same compound, the EC50 ([3]; Homo sapiens, HEK293, read-out: EC50 of transcription from GRE promoter construct (pGRE-SEAP)) was 10 to 100 nM.

With `NCCCNCCCCNCCCN` [Spermine, spermine] the gene transfer activity [4] was “no detectable gene transfer activity”.

With `C[C@@H]1C[C@H]2[C@@H]3CCC4=CC(=O)C=C[C@]4(C)[C@@]3(F)[C@@H](O)C[C@]2(C)[C@@]1(O)C(=O)CO` [dexamethasone, reference compound] the “reduction in IL-6 transcripts over control” value (osteoblasts) was 72%, the solubility (physchem) was 100 µg/mL (≈ 255 µM) and the “lung inflammation score by blinded pathologist” value (mouse lungs) was 0.

For TNF-α, the OPG/RANKL ratio (osteoblasts) was 0.12.

Reference: US9056048B2, “Synthesis and use of cationic steroids for anti-inflammatory drug therapy” (priority 2001, dated 2015)
